Patent US6765014B1, “1-Acyl-7-nitroindoline derivatives, their preparation and their use as photocleavable precursors” (Medical Research Council, priority 1999, dated 2004)
Values belong to the compound of their own block, whether it stands above or below them.

Assays:
[1] = Photolysis and product analysis (HPLC and quantitative amino acid analysis); assay type: physicochemical; settings: for Extent of photolysis (conversion): 0.5 mM, 25 mM ammonium phosphate pH 7.0, 3 min mercury arc lamp; for Measured concentration of glutamate as % of value calculated from extent of photolysis: 25 mM ammonium phosphate pH 7.0 ± 1 mM dithiothreitol; for Stoichiometry of effector release upon photolysis: quantitative amino acid analysis of part-photolyzed solutions
Method: Separate solutions of 10 (each 0.50 mM) in 25 mM ammonium phosphate, pH 7.0±1 mM dithiothreitol were irradiated in a 1-mm path length cell for 3 min using light from a mercury arc lamp which passed through Hoya 340 and Schott WG 305 filters before illuminating the cell. The extent of photolysis was determined by reverse-phase HPLC (mobile phase 25 mM Na phosphate, pH 6.0+10% MeOH, 1.5 ml/min). Quantification was based on peak heights compared to those of unphotolyzed controls. Aliquots of the photolyzed solutions were also subjected to quantitative amino acid analysis (see General Procedures).
Photolysis and product analysis for compound 21. A solution (0.5 mM) of 21 in 25 mM ammonium phosphate, pH 7.0 was irradiated as described for compound 10 and the photolyzed solution was quantified by reverse-phase HPLC and amino acid analysis.

glutamate ion channels = test: Whole-cell patch clamp of cultured rat cerebellar granule neurones, with and without flash photolysis; assay type: cell-based
Method: The caged L-glutamate reagent 10 was tested in primary cultures of rat cerebellar granule neurones for its pharmacological actions and ability to effect photolytic activation of glutamate ion channels. All electrophysiological experiments were performed in Mg^2+-free mammalian Ringer's solution containing 100 μM glycine. Cells were voltage clamped at −65 mV with whole-cell patch clamp (17) and the glutamate sensitivity was established by responses to 20 ms pulses of L-glutamate, applied at a frequency of 0.25 Hz by iontophoresis from a 1-μm tipped glass pipette. […] The latter most likely arises from glutamate diffusion away from the photolyzed region. The time course of the initial decline may represent desensitization of non-NMDA glutamate channels.
During the slow decline there was a clear increase in the low frequency noise of the glutamate-activated current compared to baseline, consistent with gating of glutamate-activated ion channels.

[2] = Quantum yield estimation by laser flash irradiation (347 nm); assay type: physicochemical
Method: Quantum yield estimation for 10. A solution of 1-(2-nitrophenylethyl) phosphate and 10 (each 0.50 mM) together with dithiothreitol (5 mM) was prepared in 25 mM ammonium phosphate, pH 7.0. Aliquots of the solution ([…]) in a 1-mm path length cell were each subjected to one 50-ns flash from a frequency-doubled ruby laser, that delivered 347 nm light with an average energy of 90 mJ (range 83-104 mJ). The combined irradiated solutions were analyzed by reverse-phase HPLC (mobile phase 25 mM Na phosphate, pH 6.0+40% MeOH, 1.5 ml/min). Retention times were 4.2 and 7.2 min for 10 and 1-(2-nitrophenylethyl) phosphate respectively. Quantification was based on peak heights compared to those of the unphotolyzed control. Extinction coefficients at 347 nm used to calculate the relative quantum yields were 2720 and 510 M^−1cm^−1 for 10 and 1-(2-nitrophenylethyl) phosphate respectively. Photolysis and product analysis for compounds 10 and 18.
The product quantum yield (Qp) for photolysis of the glutamate derivative 10 was determined by laser flash irradiation (347 nm) of a solution containing 10 and 1-(2-nitrophenyl)ethyl phosphate (16) (both 0.5 mM in pH 7 phosphate buffer). Conversions by a single flash (˜90 mJ) were 9.7 and 23% respectively (reverse-phase HPLC), leading to Qp=0.043 by comparison with the known value (16) (0.54) for the caged phosphate and after correction for the different extinction coefficients at the irradiation wavelength. Although the value of Qp is low, the relatively high extinction coefficient at ˜350 nm (˜2700 M^−1cm^−1) compared to that of “classical” 2-nitrobenzyl-type caged compounds (˜600 M^−1cm^−1) enables similar photolytic efficiency to be achieved.

[3] = Hydrolytic stability of 1-acyl-7-nitroindolines (reverse-phase HPLC); assay type: physicochemical; settings: 62.5 mM Na phosphate, pH 12.01, 30° C.
Method: The extent of hydrolysis was determined by reverse-phase HPLC analysis (mobile phase 25 mM Na phosphate, pH 6.0+10% MeOH, 1.5 ml/min). […] Quantification was based on peak heights compared to those of unhydrolysed controls (to). First-order rate constants for hydrolysis were obtained from single exponential fits to the data.
In addition to the release rate of the bioeffector species following flash irradiation, important properties of any caged compound include stability in aqueous solution and its extent of photolysis upon a single flash irradiation.
In this context, hydrolytic stability refers to the amide bond. […] The use of the free acids avoided analytical complications from the much faster cleavage of the ester group.

[4] = Relative photolysis efficiencies of 8 and 11 (xenon arc lamp, HPLC); assay type: physicochemical
Method: Relative photolysis efficiencies of 8 and 11. A solution containing both 8 and 11 (each 0.5 mM) in 25 mM Na phosphate, pH 7.0 was irradiated in a 1-mm path length cell using light from a 100 W xenon arc lamp which passed through Hoya 340 and Schott WG 305 filters before. illuminating the cell. The extent of photolysis of each compound was determined by reverse-phase HPLC analysis (mobile phase 10 mM Na phosphate, pH 6.0+50% MeOH, 1.5 mL/min). Retention times for 8 and 11 were 3.8 and 7.8 min respectively. After 2 min irradiation, the extents of conversion for compounds 8 and 11 were 40 and 16% respectively.
Upon comparative photolysis of the 1-glutaryl derivatives 8 and 11 in aqueous solutions at pH 7 and without excluding atmospheric oxygen, the bromo compound 11 was indeed converted ˜2.5-fold less efficiently than 8. Photolysis of 8 proceeded cleanly, as shown by an isosbestic point at 365 nm in spectra of a solution photolyzed for increasing times to at least 65% conversion, but the photoproduct of the protecting group was not the 7-nitroindoline 12 (λmax 450 nm) expected from the previous report (6a). […] Further confirmation of the presence of a nitroso group was that treatment of 13, R=CH2CO2Me) with a thiol readily abolished the 412 nm chromophore, presumably by conversion to the corresponding hydroxylamine (11, 12). […] In control experiments, photolysis of the glutaryl compound 8 in CH2Cl2-dioxane-H2O (2:3:0.05) cleanly gave the expected (6a) nitroindoline 12.

[5] = Comparative photolysis in aqueous solution (Rayonet photochemical reactor, UV-VIS); assay type: physicochemical; settings: for Time required for half-maximal photolysis: pH 7 (5:95), 16×350 nm lamps; for Photolysis upon irradiation: near-UV light, UV-visible spectrum of irradiated solution, conditions for 24 not given
Method: Comparative photolysis of methyl 1-acetyl-7-nitroindoline-5-acetate 16 and 1-acetyl-4-methoxy-7-nitroindoline 25 in aqueous solution. Separate 1 ml samples of each compound [0.0896 mM in EtOH-25 mM Na phosphate, pH 7 (5:95)] in 1 cm path length optical cells were photolysed simultaneously for 0, 0.25, 0.5, 1, 2, 4, 6 and 8 min in a Rayonet photochemical reactor (16×350 nm lamps) and UV-VIS spectra were recorded after each irradiation period. FIGS. 4 and 5 show the time course of photolysis for 16 and 25 respectively.
Comparative photolysis of 1-acetyl-4-methoxy-7-nitroindoline 25 and 1-acetyl-4-methoxy-[…] 30 in aqueous solution. Separate 1 ml samples of each compound [0.0748 mM in EtOH-25 mM Na phosphate, pH 7 (5:95)] in 1 cm path length optical cells were photolysed simultaneously for 0, 0.25, 0.5, 1, 2, 4 and 6 min in a Rayonet photochemical reactor (16×350 nm lamps) and UV-VIS spectra were recorded after each irradiation period. FIGS. 6 and 7 show the time course of photolysis for 25 and 30 respectively.
With the relative merits of the substitution pattern on the aromatic ring established, the effect of the more powerfully electron-releasing 4-dimethylamino group was probed. The required indole 32 was prepared via the semicarbazone 31 from N,N-dimethyl-2-methyl-3-nitroaniline by a modified Leimgruber-Batcho procedure (30). […] Nitration as before with NaNO3-TFA gave a complex mixture, from which the 5-nitro compound 34 was separated by chromatography. To achieve isolation of the required 7-nitro isomer 36, the remaining material was hydrolysed and the products chromatographed. The 5,7-dinitroindoline 35 was obtained in pure form, together with fractions that contained the presumed 7-nitroindoline. Acetylation of these combined fractions provided the desired material 36 in poor overall yield. Its structure was confirmed by nOe enhancement of the 5-proton upon irradiation of the dimethylamino signal. In the related 5-nitro isomer 34, irradiation of the dimethylamino signal had no effect on the integrated intensity of either aromatic proton signal. […] The series of compounds described in this latter series of experiments could be coupled to effector moieties, e.g. as described for compounds 10 and 21. [drawing 8] [drawing 9] [drawing 10]

[6] = 0.0896 mM in EtOH-25 mM Na phosphate
[7] = 0.0748 mM in EtOH-25 mM Na phosphate

Compound: COC(=O)Cc1cc2c(c([N+](=O)[O-])c1)N(C(=O)CC[C@H](N)C(=O)O)CC2 [Compound 10, Methyl 1-[S-(4-amino-4-carboxybutanoyl)]-7-nitroindoline-5-acetate]
Extent of photolysis (conversion) [1]: ~35%
Measured concentration of glutamate as % of value calculated from extent of photolysis [1]: 90-94%
Stoichiometry of effector release upon photolysis [1]: 1:1 stoichiometry
Efficiency of glutamate release upon photolysis, 10 vs the salt of its free acid ([1]; separate experiments): equal efficiency
Effect on peak response to iontophoretic pulses of L-glutamate (glutamate ion channels; 1 mM in bath, no photolysis): did not diminish
Activation of current in granule neurones by unphotolyzed caged compound (glutamate ion channels; 1 mM in bath, −65 mV, no photolysis): no activation of current
Time scale of L-glutamate release by flash photolysis (glutamate ion channels; 1 ms light pulse): on the same time scale as the light pulse
Rise of inward current after flash photolysis, exponential half-time (mean) (glutamate ion channels; 1 ms xenon arc flash, Schott UG11 filter, n=8): 0.74 ms
Fast decline of inward current, mean half-time (glutamate ion channels; after 1 ms xenon arc flash): 2.9 ms
Activity at glutamate ion channels of NMDA- and non-NMDA-activated types (glutamate ion channels; unphotolyzed compound): inactive
Extinction coefficient at ~350 nm [2]: ~2700 M⁻¹ cm⁻¹
Conversion by a single flash ([2]; 347 nm laser flash, ~90 mJ, 0.5 mM, pH 7 phosphate buffer): 9.7%
Product quantum yield (Qp) ([2]; 347 nm, by comparison with caged phosphate, corrected for extinction coefficients): 0.043
Extinction coefficient at 347 nm ([2]; used to calculate relative quantum yields): 2720 M⁻¹ cm⁻¹
Half-times for hydrolysis (amide hydrolysis) [3]: 6 h

Compound: O=C(O)CCCC(=O)N1CCc2cc(Br)cc([N+](=O)[O-])c21 [Compound 11, 5-Bromo-1-glutaryl-7-nitroindoline]
Extent of conversion (photolysis) ([4]; after 2 min irradiation, 0.5 mM each, 25 mM Na phosphate pH 7.0, 100 W xenon arc lamp): 16%
Fold less efficient photolytic conversion than 8 ([4]; aqueous solution pH 7, atmospheric oxygen not excluded): ~2.5 fold

Compound: COC(=O)Cc1cc(N=O)c2[nH]ccc2c1 [Compound 13, Methyl 7-nitrosoindole-5-acetate]
Effect of photolysis by-product on glutamate receptors or resting membrane properties (glutamate ion channels; control experiments during and after photolysis): no adverse effect

Compound: COC(=O)Cc1cc2c(c([N+](=O)[O-])c1)N(C(C)=O)CC2 [Compound 16, Methyl 1-acetyl-7-nitroindoline-5-acetate]
Time required for half-maximal photolysis [5, 6]: ~1.2 min

Compound: N[C@@H](CCC(=O)N1CCc2cc(CC(=O)O)cc([N+](=O)[O-])c21)C(=O)O [Compound 18, 1-[S-(4-amino-4-carboxybutanoyl)]-7-nitroindoline-5-acetic acid]
Extent of photolysis (conversion) [1]: ~51%
Measured concentration of glutamate as % of value calculated from extent of photolysis [1]: 97-108%

Compound: COC(=O)Cc1cc2c(c([N+](=O)[O-])c1)N(C(=O)CCCN)CC2 [Compound 21, Methyl 1-(4-aminobutanoyl)-7-nitroindoline-5-acetate]
Extent of photolysis (conversion) [1]: 38%
Stoichiometry of effector release upon photolysis [1]: stoichiometric release of GABA

Continued, values first:

Photolysis upon irradiation [5]: photostable
Compound: COC(=O)Cc1cc([N+](=O)[O-])c(OC)c2c1N(C(C)=O)CC2 [Compound 24, Methyl 1-acetyl-4-methoxy-5-nitroindoline-7-acetate]

Time required for half-maximal photolysis [5, 7]: ~0.4 min
Time required for half-maximal photolysis [5, 6]: ~0.4 min
Fold more efficient photolysis than 30 ([5]; aqueous solution): ~2 fold
Fold more efficient photolysis than 16 ([5]; aqueous solution, equal concentration): ~3 fold
Compound: COc1ccc([N+](=O)[O-])c2c1CCN2C(C)=O [Compound 25, 1-Acetyl-4-methoxy-7-nitroindoline]

Time required for half-maximal photolysis [5, 7]: ~0.9 min
Fold less efficient photolysis than 25 ([5]; aqueous solution): ~2 fold
Compound: COc1c(C)cc([N+](=O)[O-])c2c1CCN2C(C)=O [Compound 30, 1-Acetyl-4-methoxy-5-methyl-7-nitroindoline]

melting point: 177 to 178 °C
Photolysis upon irradiation [5]: no detectable photolysis
Compound: CC(=O)N1CCc2c(N(C)C)ccc([N+](=O)[O-])c21 [Compound 36, 1-acetyl-4-N,N-dimethylamino-7-nitroindoline]
